# Assay results as given in patent US12583870B2, “Azaheteroaryl compound and application thereof” (SHANGHAI BLUERAY BIOPHARMA CO., LTD., priority 2019, dated 2026).
# Assays:
# [1] = system: trimethylation level of histone H3K27 in G401 cells; test: ELISA (H3K27 trimethylation) analysis in G401 cells; type: cell-based; conditions: Homo sapiens, G-401, 72 hours, H3K27me3 standardized to H3
# Protocol: 3-fold series dilution with DMSO was carried out on the representative compounds of the present disclosure; and 10 concentration gradients were detected for each compound, with the highest detection concentration of 10 μM. The compounds were diluted 200-fold into the G401 cells cultured in a 96-well plate (DMSO at a final concentration of 0.5%). After the cells, administered with the compound, were cultured for 72 hours, the trimethylation level of the histone H3K27 was detected using the ELISA method.
# Extraction of the histone: in a 96-well plate, the compound-treated cells were washed three times with 1×PBS (10×PBS buffer (80 g NaCl (Sigma, product number S3014), 2 g KCl (Sigma, product number 60128), 14.4 g Na2HPO4 (Sigma, product number S5136), and 2.4 g KH2PO4 (Sigma, product number P9791) in 1 L of water, adjusting the pH to 7.4)). 100 μL of 0.4 N HCl was added into each well. The plate was placed at 4° C. and gently agitated for 2 hours to lyse the cells. The cell lysate was then neutralized with 80 μL of neutralization buffer (0.5 M disodium hydrogen phosphate, pH 12.5, 2.5 mM DTT; 1% cocktail (Sigma, product number P8340)) (the cell lysate and the neutralization buffer were thoroughly mixed to uniformity).
# ELISA detection method: the cell lysate was transferred in parallel to two 384-well detection plates (PerkinElmer, OptiPlate-384HB, product number 6007290), wherein one of the plates was used to detect the H3K27 trimethylation level and the other plate was used to determine the level of H3. PBS was used to adjust the final volume to 50 μL/well. The plates were coated at 4° C. overnight. On the following day, the solution inside the wells was discarded and the plates were washed 5 times with TBST buffer (1×TBS (10×TBS: 24.2 g Tris (Sigma, product number T6066), 80 g NaCl (Sigma, product number S3014) in 1 L of water, adjusting the pH with HCl to 7.6), 0.1% Tween-20) and dried on an absorbent paper by inversion. 70 μL of blocking buffer (TBST, 5% BSA) was added into the coated reaction wells and the plates were incubated at room temperature for 1 hour. The blocking buffer was discarded and primary antibodies were added (30 μL/well). The desired primary antibodies were all diluted with a blocking buffer and the dilution factor was as follows: anti-H3K27me3 antibody (Cell Signaling Technology, product number 9733), 1:2000 dilution; anti-H3 antibody (Cell Signaling Technology, product number 4499), 1:10000 dilution. After the primary antibodies were added, the plates were placed at room temperature and incubated for 1 hour. After the plates were washed with TBST 5 times, the plates were dried by inversion. A secondary antibody (30 μL/well) was added to each of the reaction wells and the plates were incubated at room temperature for 1 hour. The secondary antibody (anti-rabbit antibody (Jackson ImmunoResearch, product number 111-035-003)) was diluted 2000-fold with a blocking buffer before use. After 1 hour, the plates were washed with TBST and dried by inversion. 30 μL of ECL substrate (Pierce, product number 34080) was added into each well and centrifuged at 2000 rpm for 30 seconds. The signal of each sample was detected using SpectraMax (Molecular Devices). Data processing: H3K27 methylation readings were first standardlized using H3 signals and 0.5% DMSO-treated samples was used as the control to calculate the inhibition percentage of the compounds. Data were fit to obtain Dose-Response curves using the GraphPad prism 5 program and the IC50 values of the test compounds were obtained.
# [2] = system: KARPAS-422 cells; test: Cell proliferation analysis, KARPAS-422, 13 days, CellTiter-Glo; type: cell-based; conditions: Homo sapiens, 312 h
# Protocol: Human B-cell non-Hodgkin lymphoma cells, KARPAS-422 S, were cultured in a culture flask using standard cell culture conditions. The medium contained 15% fetal bovine serum (FBS, Invitrogen, product number 10099-141) and 1% penicillin/streptomycin solution (P/S) RPMI-1640 (Invitrogen, product number 11875), and the culture flask was placed and cultured in a sterile incubator at the temperature of 37° C. and […] with a relative humidity of […] To detect the effect of PRC2 inhibitors on cell proliferation, cells in exponential growth phase were taken and seeded into a 96-well plate (Corning, product number 3904) at a density of 1×10^4 cells/well, and 100 μL of the medium was added into each well. Subsequently, the compounds at different concentrations disclosed in the present disclosure were added into the wells where cells had already been seeded (9 concentration gradients were provided for each compound, with the highest detection concentration at 10 μM, 3-fold gradient dilution) and two replicates in parallel were provided for each treatment concentration. DMSO was at a final concentration of 0.5%. Afterwards, viable cell numbers were determined using Vi-CELL (Beckman Coulter) every 3-4 days. Cells counted were seeded into a new 96-well plate at the same density (1×10^4 cells/well) each time. The wells were supplemented with a fresh medium to 100 μL and at the same time, compounds at different concentrations were added. The cells were cultured to day 13. 100 μL of CellTiter-Glo (CellTiter-GloCellTiter-GloCellTiter-GloCTG) (Promega, product number G7573) was added into each well. The plate was placed in the dark at room temperature for 10-20 minutes and the luminescence signal was read using SpectraMax i3× (Molecular Devices).
IC50 [1] [µM],IC50 [2] [µM],Compound
0.0007,0.0012,"Fc1ccc2c(c1CNc1ncc(-c3cccc4nn[nH]c34)c3nncn13)CCO2 [8-(1H-benzo[d][1,2,3]triazol-7-yl)-N-((5-fluoro-2,3-dihydrobenzofuran-4-yl)methyl)-[1,2,4]triazolo[4,3-c]pyrimidin-5-amine]"
0.0017,0.0018,"Cc1ccc(-c2cnc(NCc3c(F)ccc4c3CCO4)n3cnnc23)c2ncnn12 [N-((5-fluoro-2,3-dihydrobenzofuran-4-yl)methyl)-8-(5-methyl-[1,2,4]triazolo[1,5-a]pyridin-8-yl)-[1,2,4]triazolo[4,3-c]pyrimidin-5-amine]"
0.0007,0.0005,"CN(C)Cc1ccc(-c2cnc(NCc3c(F)ccc4c3CCO4)n3cnnc23)c2ncc(C#N)n12 [5-((dimethylamino)methyl)-8-(5-(((5-fluoro-2,3-dihydrobenzofuran-4-yl)methyl)amino)-[1,2,4]triazolo[4,3-c]pyrimidin-8-yl)imidazo[1,2-a]pyridine-3-carbonitrile]"
0.0013,0.0013,"N#Cc1cnc2c(-c3cnc(NCc4c(F)ccc5c4CCO5)n4cnnc34)ccc(N3CCOCC3)n12 [8-(5-(((5-fluoro-2,3-dihydrobenzofuran-4-yl)methyl)amino)-[1,2,4]triazolo[4,3-c]pyrimidin-8-yl)-5-morpholinoimidazo[1,2-a]pyridine-3-carbonitrile]"
0.0024,0.0032,"CC(=O)NCc1cnc2c(-c3cnc(NCc4c(F)ccc5c4CCO5)n4cnnc34)ccc(C)n12 [N-((8-(5-(((5-fluoro-2,3-dihydrobenzofuran-4-yl)methyl)amino)-[1,2,4]triazolo[4,3-c]pyrimidin-8-yl)-5-methylimidazo[1,2-a]pyridin-3-yl)methyl)acetamide]"
0.0027,0.0032,"Fc1ccc2c(c1CNc1ncc(-c3ccc(N4CCCC4)n4ncnc34)c3nncn13)CCO2 [N-((5-fluoro-2,3-dihydrobenzofuran-4-yl)methyl)-8-(5-(pyrrolidin-1-yl)-[1,2,4]triazolo[1,5-a]pyridin-8-yl)-[1,2,4]triazolo[4,3-c]pyrimidin-5-amine]"
0.0016,0.0023,"Fc1ccc2c(c1CNc1ncc(-c3cccc4cn[nH]c34)c3nncn13)CCO2 [N-((5-fluoro-2,3-dihydrobenzofuran-4-yl)methyl)-8-(1H-indazol-7-yl)-[1,2,4]triazolo[4,3-c]pyrimidin-5-amine]"
0.0011,0.0007,"Fc1ccc2c(c1CNc1ncc(-c3ccc(N4CCOCC4)n4ncnc34)c3nncn13)CCO2 [N-((5-fluoro-2,3-dihydrobenzofuran-4-yl)methyl)-8-(5-morpholino-[1,2,4]triazolo[1,5-a]pyridin-8-yl)-[1,2,4]triazolo[4,3-c]pyrimidin-5-amine]"
0.0013,0.0013,"Cc1nc2c(-c3cnc(NCc4c(F)ccc5c4CCO5)n4cnnc34)ccc(C)n2n1 [8-(2,5-dimethyl-[1,2,4]triazolo[1,5-a]pyridin-8-yl)-N-((5-fluoro-2,3-dihydrobenzofuran-4-yl)methyl)-[1,2,4]triazolo[4,3-c]pyrimidin-5-amine]"
0.0006,0.0005,"CN(C)Cc1ccc(-c2cnc(NCc3c(F)ccc4c3CCO4)n3cnnc23)c2ncnn12 [8-(5-((dimethylamino)methyl)-[1,2,4]triazolo[1,5-a]pyridin-8-yl)-N-((5-fluoro-2,3-dihydrobenzofuran-4-yl)methyl)-[1,2,4]triazolo[4,3-c]pyrimidin-5-amine]"
0.0008,0.0005,"CC1CN(c2ccc(-c3cnc(NCc4c(F)ccc5c4CCO5)n4cnnc34)c3ncnn23)CCO1 (stereo not drawn) [N-((5-fluoro-2,3-dihydrobenzofuran-4-yl)methyl)-8-(5-(2-methylmorpholino)-[1,2,4]triazolo[1,5-a]pyridin-8-yl)-[1,2,4]triazolo[4,3-c]pyrimidin-5-amine]"
0.0084,0.0054,"CN(C)c1nc2c(-c3cnc(NCc4c(F)ccc5c4CCO5)n4cnnc34)cccn2n1 [8-(2-(dimethylamino)-[1,2,4]triazolo[1,5-a]pyridin-8-yl)-N-((5-fluoro-2,3-dihydrobenzofuran-4-yl)methyl)-[1,2,4]triazolo[4,3-c]pyrimidin-5-amine]"
0.0017,0.0018,"Fc1ccc2c(c1CNc1ncc(-c3ccc(N4CC5(COC5)C4)n4ncnc34)c3nncn13)CCO2 [8-(5-(2-oxa-6-azaspiro[3.3]heptan-6-yl)-[1,2,4]triazolo[1,5-a]pyridin-8-yl)-N-((5-fluoro-2,3-dihydrobenzofuran-4-yl)methyl)-[1,2,4]triazolo[4,3-c]pyrimidin-5-amine]"
0.0024,0.0044,"Cc1ccc(-c2cnc(NCc3c(F)ccc4c3[C@H]3C[C@H]3O4)n3cnnc23)c2ncnn12 [N-(((1aR,6bR)-5-fluoro-1a,6b-dihydro-1H-cyclopropa[b]benzofuran-6-yl)methyl)-8-(5-methyl-[1,2,4]triazolo[1,5-a]pyridin-8-yl)-[1,2,4]triazolo[4,3-c]pyrimidin-5-amine]"
0.0009,0.0009,"CN(C)c1ccc(-c2cnc(NCc3c(F)ccc4c3CCO4)n3cnnc23)c2ncc(C#N)n12 [5-(dimethylamino)-8-(5-(((5-fluoro-2,3-dihydrobenzofuran-4-yl)methyl)amino)-[1,2,4]triazolo[4,3-c]pyrimidin-8-yl)imidazo[1,2-a]pyridine-3-carbonitrile]"
0.001,0.0014,"CN(C)c1ccc(-c2cnc(NCc3c(F)ccc4c3CCO4)n3cnnc23)c2ncnn12 [8-(5-(dimethylamino)-[1,2,4]triazolo[1,5-a]pyridin-8-yl)-N-((5-fluoro-2,3-dihydrobenzofuran-4-yl)methyl)-[1,2,4]triazolo[4,3-c]pyrimidin-5-amine]"
0.033,0.018,"Fc1ccc2c(c1CNc1ncc(-c3ccc(Cl)n4ncnc34)c3nncn13)CCO2 [8-(5-chloro-[1,2,4]triazolo[1,5-a]pyridin-8-yl)-N-((5-fluoro-2,3-dihydrobenzofuran-4-yl)methyl)-[1,2,4]triazolo[4,3-c]pyrimidin-5-amine]"
0.0064,0.0012,"CC(C)(O)COCc1ccc(-c2cnc(NCc3c(F)ccc4c3CCO4)n3cnnc23)c2ncnn12 [1-((8-(5-(((5-fluoro-2,3-dihydrobenzofuran-4-yl)methyl)amino)-[1,2,4]triazolo[4,3-c]pyrimidin-8-yl)-[1,2,4]triazolo[1,5-a]pyridin-5-yl)methoxy)-2-methylpropan-2-ol]"
